According to US9220676B2, “Injectable in-situ crosslinked hydrogel and methods of making and using thereof” (Bioregen Biomedical (Changzhou) Co., Ltd., priority 2008, dated 2015):

Assay: Release of corticosteroid from drug-containing in-situ crosslinked sodium hyaluronate hydrogel into phosphate buffer solution
Type: physicochemical
Settings: for cumulative releasing percentage of the drug: 0.2 mL gel in 10 mL phosphate buffer solution, 37° C., 100 rpm, UV absorption of supernatant; for release of the drug from the gel (in words): summary of the release table
Protocol: Into the 10 mL thiolated sodium hyaluronate solution prepared in Example 1 (pH 7.0, 1.0% w/v), 0.1-10 mg one type of corticosteroid (e.g. Beclomethasone, Beclomethasone dipropionate, Budesonide; Dexamethasone, Prednisolone or Prednisone) was added. The solution was mix uniformly and immediately filled into a 1 mL syringe which was then sealed and kept at room temperature. It was observed after one week that the solution sealed in the syringe had lost fluidity to form a gel.
0.2 mL gel containing drug as described above was filled into a 15 mL plastic centrifugal tube; 10 mL phosphate buffer solution was added into the centrifugal tube which was then put in an incubator (37° C., 100 rpm); ultraviolet absorption of the drug in the supernatant was recorded at a certain time interval.
The cumulative releasing percentages of the drug at different times are as below: […]

| Structure (SMILES) | cumulative releasing percentage of the drug (day 7) [%] | cumulative releasing percentage of the drug (day 14) [%] | cumulative releasing percentage of the drug (day 21) [%] | release of the drug from the gel (in words) |
| --- | --- | --- | --- | --- |
| CCC(=O)OCC(=O)[C@@]1(OC(=O)CC)[C@@H](C)C[C@H]2[C@@H]3CCC4=CC(=O)C=C[C@]4(C)[C@@]3(Cl)[C@@H](O)C[C@@]21C [Beclomethasone dipropionate] | <1 | <1 | <1 | release was rarely detected |
| C[C@H]1C[C@H]2[C@@H]3CCC4=CC(=O)C=C[C@]4(C)[C@@]3(Cl)[C@@H](O)C[C@]2(C)[C@@]1(O)C(=O)CO [Beclomethasone] | 61 | 82 | 91 |  |
| C[C@]12C=CC(=O)C=C1CC[C@@H]1[C@@H]2[C@@H](O)C[C@@]2(C)[C@H]1CC[C@]2(O)C(=O)CO [Prednisolone] | 95 | 100 | 100 | released substantially completely in 7 days |
| C[C@]12C=CC(=O)C=C1CC[C@@H]1[C@@H]2C(=O)C[C@@]2(C)[C@H]1CC[C@]2(O)C(=O)CO [Prednisone] | 82 | 95 | 100 |  |
